# Test results from PubChem BioAssay (NCI).
# Values joined by “and” are separate entries in the source; they are usually repeats but may differ in a detail not shown here. Equal entries are not always repeated.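 Results reflect a 48-hour exposure of cells in 96-well plates to compound at five concentrations. Here, GI50 denotes the concentration required for 50% inhibition of growth. The concentration for full growth arrest is given as TGI.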
# Tests used:
# Experiment in all cases: inhibition of tumour cell growth, NCI panel, 48 h
# [1] = system: 786-0 renal
# [2] = system: IGROV1 ovarian
# [3] = system: SF-295 CNS
# [4] = system: RPMI-8226 leukemia
# [5] = system: UACC-62 melanoma
# [6] = system: NCI-H226 lung
# [7] = system: SK-OV-3 ovarian
# [8] = system: RXF 393 renal
# [9] = system: PC-3 prostate
# [10] = system: SK-MEL-28 melanoma
Compound,TGI [1] [µM],TGI [2] [µM],TGI [3] [µM],TGI [4] [µM],TGI [5] [µM],TGI [6],TGI [7] [µM],GI50 [1],GI50 [2],GI50 [3] [µM],GI50 [4],GI50 [5],GI50 [6],GI50 [8] [µM],TGI [8] [µM],GI50 [9],TGI [9] [µM],GI50 [10] [µM],TGI [10] [µM],GI50 [7]
O=C1CCC(=O)C(C(=O)CCC(=O)Nc2ccc(Cl)cc2)C1 (stereo not drawn),> 100,> 100,> 100,> 100,> 100,> 100 µM,> 100,,,,,,,,,,,,,
NC(=S)c1cn(C2OC(CO)C(O)C2O)c2ncnc(N)c12 (stereo not drawn),,0.586,3.07,0.448,0.406,> 21.1 µM,,0.356 µM,0.136 µM,0.287,0.099 µM,0.124 µM,0.602 µM,0.307,> 100,0.283 µM,> 20.1,0.112,0.483,
COC(=O)[C@@H](C)C[C@H](Cc1ccccc1)NC(=O)c1csc([C@@H](C[C@H](C(C)C)N(C)C(=O)[C@@H](NC(=O)CN(C)C)C2CC2)OC(C)=O)n1,> 16.5,> 16.5,0.329,> 7.96,> 16.5,> 13.2 µM,> 16.5,0.0382 µM,0.0245 µM,0.0168,0.00576 µM,0.0112 µM,0.554 µM,,,0.0267 µM,> 16.5,10.2,> 16.5,0.434 µM
COc1cc2ccc(C(=O)O)cc2cc1OC,> 100,> 100,> 100,> 100,> 100,> 100 µM,> 100,,,,,,,,> 100,,,,> 100,
O=C1NC(=Nc2ccccc2Cl)SC1C(=O)Nc1ccc([N+](=O)[O-])cc1[N+](=O)[O-] (stereo not drawn),> 100,> 100,> 100,> 100,> 100,> 100 µM,> 100,,,,,,,,> 100,,,,> 100,
Cn1cc(C2=C(c3cn(C)c4cc(Cl)ccc34)C(=O)NC2=O)c2ccccc21,> 20.8,> 13.2,> 25,> 15.2,> 25,> 25 µM,> 25,0.203 µM,0.24 µM,0.093,0.0939 µM,0.0981 µM,2.08 µM,,,0.0796 µM,> 25,3.59,> 25,0.101 µM
C/C(=N/OCCC(=O)O)C1CC1,> 100,> 100,> 100,> 100,> 100,> 100 µM,> 100,,,,,,,,> 100,,,,> 100,
CC1(C)CC(=O)C=C(NC(=O)c2ccccc2)C1,> 100,> 100,> 100,> 100,> 100,,> 100,,,,,,,,> 100,,,,> 100,
Cc1cccc2c1C(=O)OC2(c1cccc2ccccc12)c1cccc2ccccc12,> 100,> 100,> 100,,> 100,> 100 µM,> 100,,,,,,,,94.3,,,,> 100,
O=C(Nc1ccc(Oc2cccc(Cl)c2)c(Cl)c1)c1cccnc1,11.6,> 50,16,> 50,> 50,32 µM,> 50,2.69 µM,2.76 µM,1.33,2 µM,3.89 µM,2.16 µM,0.927,4.65,,,7.2,> 50,2.12 µM
CC(C)=CCCC1(C)C=Cc2c(ccc3c2[nH]c2cc(O)c(C)cc23)O1 (stereo not drawn),7.87,> 2.5,,18.9,> 25,14.6 µM,> 2.5,4.27 µM,,,,9.4 µM,7.02 µM,5.27,10.1,,,,> 2.5,
CCCN(CCC)c1c([N+](=O)[O-])cc(C(N)=O)cc1[N+](=O)[O-],> 100,> 100,> 100,> 100,,> 100 µM,> 100,,,,,,,,,,,,> 100,
O=C1/C(=C/c2ccccc2)CN(C(=O)Oc2ccccc2)C/C1=C\c1ccccc1,49.1,83.2,34.1,0.819,> 100,,,,,,,,,,31.4,,,,> 100,
CCOc1c(Cc2ccccc2)c(=O)n2c3ccccc3n3c(=O)n(C)c(=O)c1c23,> 100,> 100,> 100,> 100,> 100,,> 100,,,,,,,,> 100,,,,> 100,
CCc1cc2c(c3[nH]ccc13)[C@@H](C)C[C@H]2C,28.2,36.2,35.2,46,32,31.8 µM,54.9,,,,,,,,28.7,,,,30,
CN(C)/C=C/C(=O)c1cccc(C(=O)/C=C/N(C)C)n1,> 100,> 100,> 100,> 100,> 100,> 100 µM,> 100,,,,,,,,> 100,,,,> 100,
O=C(O)CSc1nnc(COc2ccccc2)n1-c1ccccc1,> 100,> 100,> 100,> 100,,> 100 µM,> 100,,,,,,,,,,,,> 100,
Cc1ccc(/C=C2\CN(C(=O)CCN3CCC(=NO)CC3)C/C(=C\c3ccc(C)cc3)C2=O)cc1,3.42,,,0.885,,3.86 µM,,1.68 µM,,,0.286 µM,,1.83 µM,1.64,3.05,,,2.06,4.63,
O=[P+](O)c1cc2c3ccccc3ccc2c2ccccc12,> 100,> 100,> 100,> 100,> 100,94.2 µM,> 100,,,,,,,,> 100,,,,> 100,
COC(=O)C1=C(c2cc(OC)c(OC)c(OC)c2)OC(c2cc(OC)c(OC)c(OC)c2)C1 (stereo not drawn),70.8,46,51.1,96.6,27.5,75.4 µM,71,,,,,,,,75.2,,,,> 100,

Compound,TGI [1] [µM],TGI [2] [µM],TGI [3] [µM],TGI [4] [µM],TGI [5] [µM],TGI [6],TGI [7] [µM],GI50 [1],GI50 [2],GI50 [3] [µM],GI50 [4],GI50 [5],GI50 [6],GI50 [8] [µM],TGI [8] [µM],GI50 [9],TGI [9] [µM],GI50 [10] [µM],TGI [10] [µM],GI50 [7]
CCC[CH2][Sn]1([CH2]CCC)[O]N=Cc2ccccc2[O]1,1.89,2.25,2.13,0.848,1.7,3.49 µM,6.15,0.608 µM,1.03 µM,0.93,0.231 µM,0.413 µM,1.93 µM,0.224,1.05,,,0.58,1.87,2.96 µM
c1cc[c]([Sn]([O]c2cccc3cccnc23)([c]2ccccc2)[c]2ccccc2)cc1,0.029,0.0428,0.0761,0.05,0.0188,0.153 µM,0.038,0.015 µM,0.0196 µM,0.0306,0.0184 µM,< 0.01 µM,0.0454 µM,0.0154,0.0333,,,0.0116,0.0299,0.0192 µM
COC(=O)C12CC(NC(=O)c3csc([C@@H](C[C@H](C(C)C)N(C)C(=O)[C@@H](NC(=O)[C@H]4CCCCN4C)C(C)C)OC(C)=O)n3)(C1)C2,> 33.3,> 33.3,,> 33.3,> 33.3,,> 33.3,0.005 µM and 0.00333 µM,0.00237 µM and 0.00333 µM,0.00454,0.00131 µM and 0.00333 µM,0.00313 µM and 0.00333 µM,0.0181 µM and 0.0227 µM,,,0.00639 µM and 0.00333 µM,> 33.3,> 33.3,> 33.3,0.00639 µM and 0.00333 µM
O=C(c1nc2ccccc2[nH]1)C1C(c2cccc([N+](=O)[O-])c2)C2CC3CCCCC3N2[C@@]12C(=O)Nc1cc(Cl)ccc12 (stereo partly drawn),4.52,3.69,3.58,5.6,3.2,3.48 µM,,1.89 µM,1.54 µM,1.56,1.71 µM,1.5 µM,1.59 µM,1.36,2.81,1.3 µM,4.4,1.81,3.7,
COc1ccccc1NC(=O)NS(=O)(=O)c1ccccc1,> 100,,> 100,,,> 100 µM,,,,,,,,,98.2,,,,> 100,
CC1CC(=O)CC[C@@H]1OCc1ccccc1 (stereo partly drawn),> 100,> 100,> 100,> 100,> 100,,> 100,,,,,,,,> 100,,,,,
COc1ccc(CN[C@H]2CCc3cc(OC)c(OC)c(OC)c3-c3ccc(SC)c(=O)cc32)c(OC)c1OC,> 100,> 100,> 100,31.5,19.1,0.0736 µM and 0.0509 µM,> 100,0.0285 µM,0.0395 µM,0.0167,0.0254 µM,,0.0172 µM,,0.0497,,,0.0101,> 100,
COC(=O)C([O][Ge]([CH3])([CH3])[CH3])c1ccccc1 (stereo not drawn),> 100,> 100,> 100,,> 100,> 100 µM,> 100,> 100 µM,> 100 µM,> 100,,> 100 µM,> 100 µM,,,,,> 100,> 100,> 100 µM
C=CCN1C(=O)C/C(=C2/CCC(=O)N2CC=C)C1=O,> 100,> 100,> 100,,> 100,> 100 µM,> 100,,,,,,,,> 100,,,,> 100,
N#CC(N)(C(=O)C(=O)NCCCNC(=O)C(=O)C(N)(C#N)c1ccc(Cl)cc1)c1ccc(Cl)cc1 (stereo not drawn),> 100,> 100,> 100,> 100,> 100,> 100 µM,> 100,,,,,,,,> 100,,,,> 100,
CC(C)S(=O)(=O)ON1C(=O)c2ccc([N+](=O)[O-])cc2C1=O,> 100,> 100,> 100,,> 100,> 100 µM,> 100,,,,,,,,> 100,,,,> 100,
CCC1C(=O)OCc2c1cc1n(c2=O)Cc2ccccc2-1 (stereo not drawn),> 100,> 100,> 100,> 100,> 100,> 100 µM,,,,,,,,,> 100,,,,> 100,
Cc1ccc(S(=O)(=O)N/N=C/CN2C(=O)c3ccccc3C2=O)cc1,> 100,> 100,> 100,> 100,> 100,> 100 µM,,,,,,,,,,,,,,
Clc1cc(-c2csc(Cl)c2)cs1,> 100,> 100,> 100,> 100,> 100,> 100 µM,,,,,,,,,> 100,,> 100,,> 100,
CC(C)N(C(=O)C12C3C4C5C3C1(C(=O)N(C(C)C)C(C)C)C5C42)C(C)C (stereo not drawn),> 100,> 100,> 100,> 64.4,> 100,> 100 µM,> 100,,,,,,,,> 100,,,,> 100,
COc1ccc2nc(NC(=O)C(=O)C(C#N)c3ccc(CC#N)cc3)sc2c1 (stereo not drawn),> 100,> 100,> 100,> 100,> 100,> 100 µM,> 100,,,,,,,,> 100,,,,> 100,
Nc1ccc(C(=O)N/C(=C\c2ccc3c(c2)OCO3)c2nc3ccc4c(c3[nH]2)C(=O)c2ccccc2C4=O)cc1,72.2,> 100,> 100,> 100,> 100,,79.7,,,,,,,,42.4,,,,78.5,
C/C(CC(=O)Nc1cc(Cl)c(Cl)cc1Cl)=N\NS(=O)(=O)c1ccc(C)cc1,> 100,> 100,> 100,87.2,75.9,53 µM,> 100,,,,,,,,82.7,,,,> 100,
CC(C)C(NCc1c2ccccc2nc2ccccc12)C(=O)O (stereo not drawn),> 100,> 100,> 100,> 100,,> 100 µM,> 100,,,,,,,,> 100,,,,> 100,
COc1cccc(C2N3CCCCC3[C@@H]3c4[nH]c5ccccc5c4CCN23)c1OC (stereo partly drawn),32.4,34.7,31.6,42.7,24,,31.4,,,,,,,,27.9,,,,30.4,
